The results in this text go back to ChEMBL document CHEMBL3739354, “Nitrofuranyl Methyl Piperazines as New Anti-TB Agents: Identification, Validation, Medicinal Chemistry, and PK Studies” (ACS Med Chem Lett, 2015).

Values after ≈ are worked out from the molar mass of the structure shown.

The subject of assay [1] is Mycobacterium tuberculosis. The experiment in a line: microbe, parasite or virus in culture. The conditions noted are these: 168 h.
Assay [2] relates to Mycobacterium tuberculosis. Put plainly: microbe, parasite or virus in culture. As to conditions: 168 h. This is another data set of the same source.

In the case of `O=[N+]([O-])c1ccc(CN2CCN(c3ccc(F)cc3)CC2)o1`, the MIC90 in assay [1] was 6.55 µM (≈ 2 µg/mL).

In the case of `O=[N+]([O-])c1ccc(CN2CCN(c3ccc(Cl)cc3)CC2)o1`, the MIC90 is 0.029 µM (≈ 0.00933 µg/mL) in assay [2] and 0.072 µM (≈ 0.0232 µg/mL) in assay [1].

The compound `Cc1cccc(N2CCN(Cc3ccc([N+](=O)[O-])o3)CC2)c1C` gave an MIC90 in assay [1] of 25.3 µM (≈ 7.98 µg/mL). On the same count and under the same terms, the same measure for `O=[N+]([O-])c1ccc(CN2CCN(c3ccccc3)CC2)o1`: 13.9 µM (≈ 4 µg/mL). As for `O=[N+]([O-])c1ccc(CN2CCN(S(=O)(=O)c3ccccc3)CC2)o1`, the values for the MIC90 in assay [2] and in assay [1] were > 22.7 µM and 2.13 µM (≈ 0.748 µg/mL), respectively. Regarding `COc1cccc(N2CCN(Cc3ccc([N+](=O)[O-])o3)CC2)c1`, the figures for the MIC90 in assay [2] and in assay [1] were 0.09 µM (≈ 0.0286 µg/mL) and 0.37 µM (≈ 0.117 µg/mL), respectively.

As to `O=[N+]([O-])c1ccc(CN2CCN(S(=O)(=O)c3ccc(F)cc3)CC2)o1`, the MIC90 is 1 µM (≈ 0.369 µg/mL) in assay [2] and 1.35 µM (≈ 0.499 µg/mL) in assay [1].

Regarding `Cc1ccc(S(=O)(=O)N2CCN(Cc3ccc([N+](=O)[O-])o3)CC2)cc1`, the MIC90 in assay [2] came to 14.6 µM (≈ 5.33 µg/mL); in assay [1], 0.68 µM (≈ 0.248 µg/mL). For `O=[N+]([O-])c1ccc(CN2CCN(c3cccc(Cl)c3)CC2)o1`, the MIC90 in assay [1] is 0.37 µM (≈ 0.119 µg/mL).

Regarding `O=[N+]([O-])c1ccc(CN2CCN(c3ccc(N4CCOCC4)cc3)CC2)o1`, the MIC90 in assay [2] and in assay [1] was 0.08 µM (≈ 0.0298 µg/mL) throughout.

For `CC(C)(C)c1ccc(N2CCN(Cc3ccc([N+](=O)[O-])o3)CC2)cc1`, the MIC90 is > 25.2 µM in assay [2] and 1.32 µM (≈ 0.453 µg/mL) in assay [1]. In assay [1], `O=[N+]([O-])c1ccc(CN2CCN(c3ccccc3F)CC2)o1` returned an MIC90 of 13.1 µM (≈ 4 µg/mL). Take `O=[N+]([O-])c1ccc(CN2CCN(c3cccc(C(F)(F)F)c3)CC2)o1`: in assay [1], the MIC90 is 5.63 µM (≈ 2 µg/mL). Regarding `O=[N+]([O-])c1ccc(S(=O)(=O)N2CCN(Cc3ccc([N+](=O)[O-])o3)CC2)cc1`, the values for the MIC90 in assay [2] and in assay [1] were 4.19 µM (≈ 1.66 µg/mL) and 0.63 µM (≈ 0.25 µg/mL), respectively. `N#Cc1cccc(N2CCN(Cc3ccc([N+](=O)[O-])o3)CC2)c1`: the MIC90 in assay [2] stood at 0.06 µM (≈ 0.0187 µg/mL); in assay [1], 0.19 µM (≈ 0.0593 µg/mL).

With `CC(C)(C)OC(=O)N1CCN(Cc2ccc([N+](=O)[O-])o2)CC1`, the figures for the MIC90 in assay [2] and in assay [1] were 0.12 µM (≈ 0.0374 µg/mL) and 0.32 µM (≈ 0.0996 µg/mL), respectively.

Consider `COc1c(N2CCNC(C)C2)c(F)cc2c(=O)c(C(=O)O)cn(C3CC3)c12` (stereo not given) [GATIFLOXACIN], for which the MIC90 in assay [2] stood at 1.33 µM (≈ 0.499 µg/mL); in assay [1], 2.66 µM (≈ 0.999 µg/mL).

Consider `CO[C@H]1/C=C/O[C@@]2(C)Oc3c(C)c(O)c4c(O)c(c(/C=N/N5CCN(C)CC5)c(O)c4c3C2=O)NC(=O)/C(C)=C\C=C\[C@H](C)[C@H](O)[C@@H](C)[C@@H](O)[C@@H](C)[C@H](OC(C)=O)[C@@H]1C` [RIFAMPIN], for which the MIC90 in assay [2] stood at 156 µM (≈ 128 µg/mL); in assay [1] it was 311 µM (≈ 256 µg/mL).
